Results reported in US20210228500A1, “CELLULAR RETINOID BINDING PROTEIN ANTAGONISTS AND USES THEREOF” (CASE WESTERN RESRVE UNIVERSITY, priority 2018, published 2021).
Entries after “also recorded” stand apart in the source; their conditions may differ.

What was measured:
CRBP2 = molecular target: T1, CRBP2 (Homo sapiens, UniProt P50120); assay: Fluorescence-binding assay with CRBP2
T1 construct: 6x histidine tag (C, cleaved yes); thrombin cut site (residual residues after digestion) (C); made in house; host or cells: E. coli BL21 (DE3)
T1 sequence (P50120 1-134): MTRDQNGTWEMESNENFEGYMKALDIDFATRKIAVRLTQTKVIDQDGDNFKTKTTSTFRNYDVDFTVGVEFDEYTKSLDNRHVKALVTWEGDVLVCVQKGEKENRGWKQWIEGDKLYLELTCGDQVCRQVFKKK

CRBP3 = molecular target: T2, CRBP3 (Homo sapiens, UniProt P82980); assay: Crystal structure of CRBP3 in complex with abn-CBD; format: binding; conditions: crystal structure PDB No. 6E5W
T2 construct: thrombin cut site (residual residues after digestion) (C); 6x histidine tag (C, cleaved yes); made in house; host or cells: E. coli BL21 (DE3) (as for CRBP2)
T2 sequence (P82980 1-135): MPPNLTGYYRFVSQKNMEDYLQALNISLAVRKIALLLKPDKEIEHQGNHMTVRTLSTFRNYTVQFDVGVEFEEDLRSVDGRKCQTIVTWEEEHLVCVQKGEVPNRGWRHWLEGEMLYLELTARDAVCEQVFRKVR
Method: The cDNA of human CRBP3 was purchased from Origene Technologies. To introduce a thrombin cut site at the C-terminus of the protein, the cDNA was amplified by PCR and subcloned into pET30b vector. The next steps of the expression and purification of CRBP3 were identical to the procedure described above for CRBP2.
Crystals of CRBP1 in complex abn-CBD and its derivatives (abn-CBDO or CBDO) were grown essentially as described by Silvaroli et al (ACS Chem Biol. 2019, 15; 14(3)). The apo protein at 3 mg mL-1 was preincubated with 300 μM of a ligand in 10 mM Tris-HCl buffer, pH 8.0, 150 mM NaCl for 15 min on ice. This sample (1 μL) was mixed in 1:1 ratio with a crystallization solution composed of 0.1 M BisTris, pH 5.5, and 25% poly(ethylene glycol) (PEG) 3350 (w/v). Crystals of CRBP3 with abn-CBD were obtained by preincubating apoprotein at 8 mg mL-1 with 300 μM of the ligand for 15 min and setting up crystallization drops by mixing 1 μL of the protein sample with 1 μL of 0.2 M sodium malonate, pH 5.0 and 20% PEG 3350 (w/v) solution. For CRBP4, the crystallization conditions included 0.2 M NaCl, 0.1 M BisTris, pH 6.5, and 25% PEG 3350 (w/v). Similar to the other CRBPs, CRBP4 (6 mg mL^−1) was preincubated with abn-CBD prior to the crystallization. All of the protein crystals were obtained by the sitting drop vapor diffusion method at RT. […]

RPE65 = molecular target: T3, RPE65 (Bos taurus, UniProt Q28175); assay: RPE65 isomerization activity assay; format: biochemical; conditions: bovine RPE microsomes preincubated with 10-50 μM
T3 construct: from tissue; host or cells: bovine RPE microsomes
T3 sequence (Q28175 whole entry): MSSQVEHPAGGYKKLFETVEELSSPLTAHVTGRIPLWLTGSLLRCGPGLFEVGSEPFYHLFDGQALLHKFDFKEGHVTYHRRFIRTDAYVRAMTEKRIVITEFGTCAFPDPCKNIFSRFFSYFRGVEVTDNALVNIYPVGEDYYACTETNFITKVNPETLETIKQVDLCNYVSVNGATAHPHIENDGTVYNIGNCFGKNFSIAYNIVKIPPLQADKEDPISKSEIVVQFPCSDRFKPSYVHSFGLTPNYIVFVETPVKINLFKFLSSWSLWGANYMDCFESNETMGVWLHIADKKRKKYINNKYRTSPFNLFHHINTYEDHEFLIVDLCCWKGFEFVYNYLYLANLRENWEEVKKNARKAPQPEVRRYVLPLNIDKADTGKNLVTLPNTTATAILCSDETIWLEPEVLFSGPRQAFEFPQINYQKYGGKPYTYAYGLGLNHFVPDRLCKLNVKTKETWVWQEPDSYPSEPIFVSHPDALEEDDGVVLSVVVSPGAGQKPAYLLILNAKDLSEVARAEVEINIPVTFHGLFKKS
Method: For the retinoid isomerization assay, UV-bleached RPE microsomes isolated from bovine eyes served as a source of robust RPE65 enzymatic activity. The isomerization reaction was performed in the presence of cellular retinaldehyde-binding protein (CRALBP) according to an established methodology published previously. The enzymatic reaction was initiated by addition of atROL the final concentration of 10 μM. After incubation at 30° C. for 30 min, the reaction products were extracted with hexane and analyzed by HPLC as described above.
(§1) Thus, to further probe the biological effect of this compound, we tested its effect on the key enzymes of the visual cycle. For this purpose, microsomes isolated from bovine RPE cells were preincubated with 10-50 μM of abn-CBD (1:1 to 1:5 molar excess of cannabinoid) prior to the initiation of the esterification, isomerization, or oxidation reactions by addition of an adequate retinoid substrate.

RDH5 = molecular target: T4, RDH5 (Bos taurus, UniProt Q27979); assay: 11-cis-retinol oxidation assay; format: biochemical; conditions: bovine RPE microsomes preincubated with 10-50 μM
T4 construct: from tissue; host or cells: bovine RPE microsomes
T4 sequence (Q27979 1-318): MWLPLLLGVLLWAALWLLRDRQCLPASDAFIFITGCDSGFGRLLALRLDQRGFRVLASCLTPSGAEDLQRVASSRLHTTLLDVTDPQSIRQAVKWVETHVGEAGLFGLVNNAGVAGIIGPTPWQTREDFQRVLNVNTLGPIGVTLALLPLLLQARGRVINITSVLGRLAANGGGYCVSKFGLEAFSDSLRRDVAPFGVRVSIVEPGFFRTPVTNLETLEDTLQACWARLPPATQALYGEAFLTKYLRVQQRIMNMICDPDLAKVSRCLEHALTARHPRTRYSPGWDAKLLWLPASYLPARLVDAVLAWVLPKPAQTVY
Method: Dehydrogenase activity was assayed by monitoring oxidation of 11-cis-retinol to a corresponding aldehyde in bovine RPE microsomes. The reaction mixture containing 20 mM Tris/HCl buffer, pH 8.0, 1% BSA (w/v), 20 μM NAD+, and RPE microsomes (˜100 μg of total protein) in the total volume of 0.1 mL. 11-cis-Retinol (10 μM) was incubated at 30° C. for 10 min. The reaction was stopped by 0.2 mL of methanol that contained 40 mM hydroxylamine. After subsequent 15 min of incubation at RT, the retinoids were extracted with 0.3 mL of hexane and analyzed by normal-phase HPLC as described for the retinol esterification assay.
as §1

C=C(C)[C@@H]1CCC(C)=C[C@H]1c1c(O)cc(O)cc1CCCCC [abn-CBD, 4-[(1R,6R)-3-Methyl-6-prop-1-en-2-ylcyclohex-2-en-1-yl]-5-pentylbenzene-1,3-diol]
interaction with CRBP2 (CRBP2): does not interact; also recorded: absence of interaction
binding to CRBP3 (CRBP3): bind abn-CBD similarly to CRBP1
effect on enzymatic activity of RPE65 (RPE65): did not cause a measurable decline
effect on enzymatic activity of RDH5 (RDH5): did not cause a measurable decline
